Experimental data as given in patent publication US11185100B2 (priority 2014, dated 2021).
Where two headings read alike, the source gives them in different places.

Legend:
cat T1R1/T1R3 receptor = cat T1R1/T1R3 receptor (Felis catus, UniProt E3UMS2); test: cell-based; format: cell-based; conditions: for Max. resp. % of IMP: hek293 cells
Source text: (§1) Methods: HEK293 cells that stably express T1R3 and inducibly express T1R1 were exposed to nucleotide derivatives alone or in combination with one or more amino acids and/or one or more nucleotides to activate the umami receptor. Activation of the T1R1/T1R3 receptor was detected by a change in intracellular calcium levels using a calcium sensitive fluorescent dye and/or a luminescent reporter system. Cells that express T1R3 but not T1R1 were used as a control. A FLIPR® Tetra or a FlexStation® 3 was used for data capture.

T1R1/T1R3 receptor [1] = target: T1, T1R1/T1R3 receptor (Felis catus, UniProt E3UMS2); test: Activation of T1R1/T1R3 receptor by transmembrane compounds alone or with alanine, IMP, GMP, phenylalanine; HEK293 cells, calcium fluorescence (Example 5); format: cell-based, cat; conditions: read-out: EC50 (effect with 0.2 mM IMP); Table 20 controls; in the presence of 0.2 mM IMP
Procedure, shortened: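 HEK293 cells stably expressing feline T1R3 with inducible T1R1 treated with serial dilutions (up to 10 mM) of transmembrane compounds, alone or combined with amino acids and/or nucleotides. Activation read as intracellular calcium change via calcium-sensitive fluorescent dye; T1R3-only cells served as control.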

T1R1/T1R3 receptor [2] = target: T1, T1R1/T1R3 receptor; test: Activation of T1R1/T1R3 receptor by transmembrane compounds and nucleotide derivatives, conducted as in Examples 1, 2 and 5 (Example 7); format: cell-based, cat; conditions: for Activity: modulation of T1R1/T1R3
Source text: Methods: HEK293 cells that stably express T1R3 and inducibly express T1R1 were exposed to nucleotide derivatives alone to activate the umami receptor. Activation of the T1R1/T1R3 receptor was detected by a change in intracellular calcium levels using a calcium sensitive fluorescent dye. Cells that express T1R3 but not T1R1 were used as a control. A FLIPR® Tetra or a FlexStation® 3 was used for data capture.
as §1
Methods: HEK293 cells that stably express T1R3 and inducibly express T1R1 were exposed to transmembrane compounds alone or in combination with one or more amino acids and/or one or more nucleotides to activate the umami receptor. Activation of the T1R1/T1R3 receptor was detected by a change in intracellular calcium levels using a calcium sensitive fluorescent dye. Cells that express T1R3 but not T1R1 were used as a control. A FLIPR® Tetra or a FlexStation® 3 was used for data capture.
In each experiment, serial dilutions of up to 10 mM of the transmembrane compound were added to the T1R1/T1R3-expressing cells.

T1R1/T1R3 receptor [3] = target: T1, T1R1/T1R3 receptor; test: PAM screening of transmembrane compounds with GMP and Ala on T1R1/T1R3 in HEK293 cells (Example 8); format: cell-based, cat; conditions: for T1R1/T1R3 PAM: transmembrane compound at 0.01, 0.1 and 1 mM with GMP + Ala mixtures (T1-T4), PAM if response greater than sum of compound alone and GMP+Ala alone
Source text: PAM Screening Method: HEK293 cells that stably express T1R3 and inducibly express T1R1 were exposed to transmembrane compound alone or in combination with Ala and GMP to activate the umami receptor. Activation of the T1R1/T1R3 receptor was detected by a change in intracellular calcium levels using a calcium sensitive fluorescent dye and/or a luminescent reporter system. […] A FLIPR® Tetra or a FlexStation® 3 was used for data capture.
Dose response curves were generated for each transmembrane compound at concentrations of 0 (buffer only), 0.01, 0.1 and 1 mM, wherein each of the three concentrations of transmembrane compound was tested in combination with 0.03 mM GMP+100 mM Ala (T1); 0.6 mM GMP+10 mM Ala (T2); 0.1 mM GMP+60 mM Ala (T3) and 0.3 mM GMP+60 mM Ala (T4). The T4 mixture was also tested in a 2-fold dilution series (the T4(X) Concentration). In these experiments, the first test concentration was 2× (2 times) the T4 concentration. The subsequent test concentrations were 2-fold dilutions from that (1×, 0.5× etc.). This dilution series was tested with or without the addition of the test compound at a constant 0.3 mM concentration.
Activation of the umami receptor was also determined in the presence of 1 mM GMP+100 mM Ala to generate a “maximum” umami receptor activation level.

T1R1/T1R3 receptor [4] = target: T1, T1R1/T1R3 receptor; test: Agonist screening of transmembrane compounds on T1R1/T1R3 in HEK293 cells (Example 8); format: cell-based, cat; conditions: for T1R1/T1R3 agonist: transmembrane compound tested at 0.01, 0.1 and 1 mM, HEK293 cells expressing T1R1/T1R3, calcium readout
Description: Agonist Screening Method: HEK293 cells that stably express T1R3 and inducibly express T1R1 were exposed to a transmembrane compound. Activation of the T1R1/T1R3 receptor was detected by a change in intracellular calcium levels using a calcium sensitive fluorescent dye and/or a luminescent reporter system. […] A FLIPR® Tetra or a FlexStation® 3 was used for data capture.
Each transmembrane compound was tested at concentrations of 0.01 mM, 0.1 mM, and 1 mM. […] To generate the dose response curves, the transmembrane compound was tested at concentrations of between 0.0001 mM and 1.0 mM in the presence of GMP and Ala.

For `C[C@H](N)C(=O)O` [L-Alanine, reference compound], the EC50 (cat T1R1/T1R3 receptor; read-out: EC50) was 13.6 ± 4.3 mM, the EC50 (T1R1/T1R3 receptor [1]) was 13.6 ± 4.3 mM and the “Max resp % of Ala +IMP (0.2 mM)” value (T1R1/T1R3 receptor [2]; +IMP (0.2 mM)) was 100.0 % of Ala. The “Max resp ΔF/F +IMP (0.2 mM)” value (T1R1/T1R3 receptor [2]; +IMP (0.2 mM)) was 0.7775 ΔF/F and the “Thres +IMP (0.2 mM)” value (T1R1/T1R3 receptor [2]; +IMP (0.2 mM)) was 3.0 mM.
For `O=C(CN1C(=O)C(=O)N(CCc2cccs2)C1=O)c1cccc2ccccc12` [Formula 11, 1-(2-(naphthalen-1-yl)-2-oxoethyl)-3-(2-(thiophen-2-yl)ethyl)imidazolidine-2,4,5-trione], the “T1R1/T1R3 PAM” value (T1R1/T1R3 receptor [3]) was “No” and the T1R1/T1R3 agonist (T1R1/T1R3 receptor [4]) was “No”.
`O=C1CC(=O)N(Cc2ccccc2)C(=O)N1Cc1ccccc1` [1,3-dibenzylpyrimidine-2,4,6(1H,3H,5H)-trione] was tested, and the “agonist profile assessment (activation of T1R1/T1R3 by the compound alone)” value (T1R1/T1R3 receptor [4]; compound alone) was “agonist activity”, the “Max resp ΔF/F +Alanine (20 mM)” value (T1R1/T1R3 receptor [2]) was 0.2925 ΔF/F and the “Thres +Alanine (20 mM)” value (T1R1/T1R3 receptor [2]) was 0.1 mM. For the same compound, the “Max resp % of Ala +IMP (0.2 mM)” value (T1R1/T1R3 receptor [2]; +IMP (0.2 mM)) was 35.7 % of Ala, the “Max resp ΔF/F +IMP (0.2 mM)” value (T1R1/T1R3 receptor [2]; +IMP (0.2 mM)) was 0.2775 ΔF/F and the “Thres +IMP (0.2 mM)” value (T1R1/T1R3 receptor [2]; +IMP (0.2 mM)) was 0.1 mM. For the same compound, the “Max resp % of IMP +Alanine (20 mM)” value (T1R1/T1R3 receptor [2]; hek293 cells) was 42.7 % of IMP and the Activity (T1R1/T1R3 receptor [2]) was “active”.
With `COC(=O)C(NCc1ccccc1)c1ccccc1` (stereo not drawn) [Formula 19, Methyl-2-benzylamino-2-phenylacetate] the “T1R1/T1R3 PAM” value (T1R1/T1R3 receptor [3]) was “Yes” and the T1R1/T1R3 agonist (T1R1/T1R3 receptor [4]) was “Yes”.
With `O=C(CN1C(=O)C(=O)N(Cc2ccccc2)C1=O)c1ccc(Cl)s1` [1-benzyl-3-(2-(5-chlorothiophen-2-yl)-2-oxoethyl)imidazolidine-2,4,5-trione] the “PAM profile assessment (activation of T1R1/T1R3 in the presence of GMP and Alanine)” value (T1R1/T1R3 receptor [3]) was “PAM activity”.
For `O=P(O)(O)OP(=O)(O)OP(=O)(O)OC[C@H]1O[C@@H](n2cnc3c(Cl)ncnc32)[C@H](O)[C@@H]1O` [6-Chloropurine riboside-5′-O-triphosphate], the “Max resp. (ΔF/F)” value (cat T1R1/T1R3 receptor) was 0.345 ΔF/F, the “Threshold” value (cat T1R1/T1R3 receptor) was 0.01 mM and the “Max. resp. % of IMP” value (cat T1R1/T1R3 receptor) was 50.4 % of IMP. The “Max resp % of IMP +Alanine (20 mM)” value (T1R1/T1R3 receptor [2]; +Alanine (20 mM)) was 50.4 % of IMP, the “Max resp ΔF/F +Alanine (20 mM)” value (T1R1/T1R3 receptor [2]; +Alanine (20 mM)) was 0.3450 ΔF/F and the “Thres +Alanine (20 mM)” value (T1R1/T1R3 receptor [2]; +Alanine (20 mM)) was 0.01 mM. For the same compound, the “Max resp % of Ala +IMP (0.2 mM)” value (T1R1/T1R3 receptor [2]; +IMP (0.2 mM)) was 30.2 % of Ala, the “Max resp ΔF/F +IMP (0.2 mM)” value (T1R1/T1R3 receptor [2]; +IMP (0.2 mM)) was 0.2350 ΔF/F and the “Thres +IMP (0.2 mM)” value (T1R1/T1R3 receptor [2]; +IMP (0.2 mM)) was 0.003 mM. The Activity (T1R1/T1R3 receptor [2]) was “active”.
`O=C(CN1C(=O)C(=O)N(Cc2ccccc2)C1=O)c1ccc2c(c1)OCCCO2` [1-benzyl-3-(2-(3,4-dihydro-2H-benzo[b][1,4]dioxepin-7-yl)-2-oxoethyl)imidazolidine-2,4,5-trione] was tested, and the “PAM profile assessment (activation of T1R1/T1R3 in the presence of GMP and Alanine)” value (T1R1/T1R3 receptor [3]) was “PAM activity”.
`Nc1nc2c(ncn2[C@@H]2O[C@H](COP(=O)(O)OP(=O)(O)O)[C@@H](O)[C@H]2O)c(=S)[nH]1` [6-Thioguanosine-5′-O-diphosphate] was tested, and the “Max resp. (ΔF/F)” value (cat T1R1/T1R3 receptor) was 1.047 ΔF/F, the “Threshold” value (cat T1R1/T1R3 receptor) was 0.03 mM and the “Max. resp. % of IMP” value (cat T1R1/T1R3 receptor) was 152.8 % of IMP. For the same compound, the EC50 (cat T1R1/T1R3 receptor; in the presence of 20 mM alanine, read-out: EC50- with Ala) was 0.18 ± 0.02 mM, the “Max resp ΔF/F +Alanine (20 mM)” value (T1R1/T1R3 receptor [2]) was 1.0470 ΔF/F and the “Thres +Alanine (20 mM)” value (T1R1/T1R3 receptor [2]) was 0.03 mM. For the same compound, the “Max resp % of Ala +IMP (0.2 mM)” value (T1R1/T1R3 receptor [2]; +IMP (0.2 mM)) was 9.3 % of Ala, the “Max resp ΔF/F +IMP (0.2 mM)” value (T1R1/T1R3 receptor [2]; +IMP (0.2 mM)) was 0.0720 ΔF/F and the “Max resp % of IMP +Alanine (20 mM)” value (T1R1/T1R3 receptor [2]; hek293 cells) was 152.8 % of IMP. For the same compound, the Activity (T1R1/T1R3 receptor [2]) was “active”.
In the case of `N[C@@H](Cc1c[nH]cn1)C(=O)O` [L-Histidine, L-histidine, reference compound], the “Max resp % of Ala +IMP (0.2 mM)” value (T1R1/T1R3 receptor [2]; +IMP (0.2 mM)) is reported as 36.3 % of Ala, the “Max resp ΔF/F +IMP (0.2 mM)” value (T1R1/T1R3 receptor [2]; +IMP (0.2 mM)) is reported as 0.2825 ΔF/F and the “Thres +IMP (0.2 mM)” value (T1R1/T1R3 receptor [2]; +IMP (0.2 mM)) is reported as 10.0 mM.
In the case of `N[C@@H](Cc1ccc(O)cc1)C(=O)O` [L-Tyrosine, reference compound], the “Max resp ΔF/F +IMP (0.2 mM)” value (T1R1/T1R3 receptor [2]) is reported as 0.2958 ΔF/F, the “Max resp % of Ala +IMP (0.2 mM)” value (T1R1/T1R3 receptor [2]; +IMP (0.2 mM)) is reported as 38.0 % of Ala and the “Thres +IMP (0.2 mM)” value (T1R1/T1R3 receptor [2]; +IMP (0.2 mM)) is reported as 3.0 mM.
